Peptide text beside a SMILES is read from it.
System: Candidatus Pantoea carbekii
Test: Quantification of P. carbekii titers by RT-qPCR in H. halys nymphs hatched from treated eggs
Format: in vivo, Halyomorpha halys
Details: for levels of P. carbekii (symbiont levels per host; ratio of P. carbekii dnaK to H. halys 60s expression): Example 5: egg mass treatment, late 2nd instars, vs water control, FIG. 5; for levels of P. carbekii (ratio of P. carbekii dnaK to H. halys 60s expression): third instars collected, vs negative control
Method: Total RNA was extracted from nymphs using total RNA isolation and purification kits (both from Thermo Fisher Scientific), and the extracted RNA was eluted in 100 μL water. […] Each of the PCR mixtures was 10 μL in volume. RT-qPCR was performed using a PCR amplification ramp of 1.6° C./s and the following conditions: 1) 48° C. for 30 min; 2) 95° C. for 10 minutes; 3) 95° C. for 15 seconds; 4) 55° C. for 30 seconds; 5) repeat steps 3-4 40×, 6); 95° C. for 15 seconds; 7) 55° C. for 1 minute; 8) ramp change to 0.15° C./s; 9) 95° C. for 1 second. RT-qPCR data was analyzed using analytic software (Thermo Fisher Scientific).
Working concentrations of the PHA synthesis inhibitors (vanillin, levulinic acid, acrylic acid (AA), and 2-bromooctanoic acid (2BA)) were made up to 100 μg/ml in water. The solutions of PHA inhibitors were spiked with a non-ionic wetting solution to a final concentration of 0.025% to increase the wettability and spreading of the agents on the eggs. As a negative control, no agents were added to the 0.025% non-ionic wetting solution, and as a positive control, 100 μg/ml of the antibiotic rifamycin S was used. Egg masses on leaf disks were removed from the colony in a single day during peak egg production. Each egg mass was then placed in a container with a paper towel at the bottom, and a tube of water plugged with cotton was provided as a water source for the hatchlings. 100 μl of the agent was pipetted onto the eggs to wet them completely. This allowed the agent to interact directly with the bacteria before the bacteria was able to colonize the host. Once the 1st instar hatchlings molted to the 2nd instar stage, food was provided in the form of 500 mg diet pellets (see “Halyomorpha halys lab colony rearing and maintenance” above). Late 2nd instars were collected and frozen to extract DNA to assay for the symbiont levels, as described in Example 4. […]

[1] = 100 μg/ml in water with 0.025% non-ionic wetting solution, 100 μl
[2] = Example 6: egg mass treatment, 100 μg/ml in water with 0.025% Silwet L-77, 100 μl, FIG. 6

For `CCCCCCC(Br)C(=O)O` (centres unmarked) [2-bromooctanoic acid], which “levels of P. carbekii (symbiont levels per host; ratio of P. carbekii dnaK to H. halys 60s expression)” value [1] is on record?
Its value is “reduction in the symbiont levels per host”.

Which results are given for `CO[C@H]1/C=C/O[C@@]2(C)Oc3c(C)c(O)c4c(c3C2=O)C(=O)C=C(NC(=O)/C(C)=C\C=C\[C@H](C)[C@H](O)[C@@H](C)[C@@H](O)[C@@H](C)[C@H](OC(C)=O)[C@@H]1C)C4=O` [Rifamycin S]?
levels of P. carbekii (symbiont levels per host; ratio of P. carbekii dnaK to H. halys 60s expression) [1]: significantly lower; levels of P. carbekii (ratio of P. carbekii dnaK to H. halys 60s expression) [2]: significantly lower; levels of P. carbekii (ratio of P. carbekii dnaK to H. halys 60s expression) (Example 7: egg mass treatment, 100 μg/ml in water with 0.025% non-ionic wetting solution, 100 μl, FIG. 7): significantly lower

`C=CC(=O)O` [acrylic acid] was tested. Which “levels of P. carbekii (symbiont levels per host; ratio of P. carbekii dnaK to H. halys 60s expression)” value [1] did it give?
Its value is “reduction in the symbiont levels per host”.

For `CC[C@H](C)[C@H](N)C1=N[C@H](C(=O)N[C@@H](CC(C)C)C(=O)N[C@H](CCC(=O)O)C(=O)N[C@H](C(=O)N[C@H]2CCCCNC(=O)[C@H](CC(N)=O)NC(=O)[C@@H](CC(=O)O)NC(=O)[C@H](Cc3cnc[nH]3)NC(=O)[C@@H](Cc3ccccc3)NC(=O)[C@H]([C@@H](C)CC)NC(=O)[C@@H](CCCN)NC2=O)[C@@H](C)CC)CS1` [bacitracin] (HELM PEPTIDE1{[CC[C@H](C)[C@H](N)C1=N[C@H](C(=O)[*:2])CS1].L.[dE].I.K.[NCCC[C@@H](N[*:1])C(=O)[*:2]].I.[dF].H.[dD].N}$PEPTIDE1,PEPTIDE1,5:R3-11:R2$$$V2.0), which “levels of P. carbekii (ratio of P. carbekii dnaK to H. halys 60s expression)” value [2] is on record?
Its value is “significantly lower”.

`CC(=O)CCC(=O)O` [levulinic acid] was tested. Which “levels of P. carbekii (symbiont levels per host; ratio of P. carbekii dnaK to H. halys 60s expression)” value [1] did it give?
Its value is “reduction in the symbiont levels per host”.

How did the “levels of P. carbekii (symbiont levels per host; ratio of P. carbekii dnaK to H. halys 60s expression)” value [1] turn out when `COc1cc(C=O)ccc1O` [vanillin] was run?
Its value is “reduction in the symbiont levels per host”.

— patent US20210289794A1, “COMPOSITIONS AND RELATED METHODS FOR AGRICULTURE” (Flagship Pioneering Innovations V, Inc., priority 2018, published 2021)
